Measurements reported in patent US20030087834A1, “Increased fertility and improved fetal development drug” (priority 1999, published 2003).

Columns and labels:
Female Crl:CD(SD)BR Rats = test: Food consumption in pregnant rats fed D-tagatose; type: in vivo, rat; conditions: for Food intake (g/animal) / Food intake (g/kg body wt/day): mean ±SD
Excerpt: (§1) Safety tests performed on tagatose in its development as a low-calorie sweetener included developmental toxicity studies in rats. Rats are accepted by the US FDA as good models for humans in studying safety and efficacy of food additives and drugs. Newly impregnated rats were placed on various doses of tagatose in their daily diet. Female rats were housed with males nightly in a one-to-one ratio, and each morning inspections for vaginal plugs were made, and in their absence, vaginal smears were taken and tested for sperm. Those females which had been mated were selected for monitoring of fetal development and assigned to tagatose dose groups in a manner so as to provide an equal distribution of mated females among groups and also to equalize the Day 0 gestation mean body weights among the groups. There were 24 mated females in each group. On Days 6-15 of gestation three of the groups received respective total doses of 4,000, 12,000 and 20,000 mg/kg body wt/day administered via gastric intubation in two equally divided doses separated by a four-hour interval. Each dose was administered in 30 ml/kg body weight of distilled, deionized water. […] For a period of 20 days following mating, the rats were observed and measurements taken daily. Upon the 20th day, the rats were killed and a wide variety of physical, toxicological, and fetal developmental parameters was determined for treatment effects. […] However, I noted unpredictable, novel and beneficial effects with respect to fertility and fetal development.
One of the common problems associated with pregnancy is overeating which can result in excess weight gain with its concomitant health risks to the mother and fetus. […] This represents a clear health advantage for both dam and fetus receiving tagatose.

human = test: Examples 1-4: human taking tagatose before and during pregnancy; type: in vivo
Excerpt: A 70 kg human with a history of difficulty in conceiving begins taking tagatose twice daily at five g per dose, beginning one month before an attempt to conceive. […] A 70 kg human with a history of spontaneous abortions and stillbirths takes tagatose twice daily at five g per dose, beginning one month before an attempt to conceive. […] A 70 kg human takes precautions against giving birth to a below average weight infant by taking tagatose twice daily at five g per dose, beginning one month before an attempt to conceive. […] A 70 kg human inclined toward obesity desires a child, but is concerned that pregnancy may increase their food intake causing weight problems as experienced in their past pregnancies. They take tagatose twice daily at five g per dose, beginning one month before an attempt to conceive. […] They deliver a healthy, normal child.

[1] = test system: Female Crl:CD (SD) BR Rats; test: Developmental toxicity study in rats: reproductive performance and fetal development; type: in vivo, rat; conditions: for Females pregnant (%) / Fertility index / Litters with resorptions (%) / Number of dead fetuses / Number of females bearing viable fetuses / Number of females pregnant / Number of litters with resorptions / Total number of viable fetuses / Body weight (g) of viable fetuses / Body weight (g) of viable fetuses: Female fetuses / Body weight (g) of viable fetuses: Male fetuses / Number of corpora lutea / Number of female fetuses / Number of implantation sites / Number of males fetuses / Number of resorptions / Postimplantation loss = (resorptions/implantations) / Preimplantation loss = (corpora lutea-implants)/(corpora lutea): Days 6 to 15 of gestation; for Total number of viable fetuses: Day 20; for Body weight (g) of viable fetuses / Body weight (g) of viable fetuses: Female fetuses / Body weight (g) of viable fetuses: Male fetuses / Number of corpora lutea / Number of female fetuses / Number of implantation sites / Number of males fetuses / Number of resorptions / Postimplantation loss = (resorptions/implantations) / Preimplantation loss = (corpora lutea-implants)/(corpora lutea): mean ±SD
Excerpt: as §1

[2] = 4,000 mg/kg/day, Days 0-6 of pregnancy (pretreatment)
[3] = 4,000 mg/kg/day, Days 6-9 of pregnancy
[4] = 4,000 mg/kg/day, Days 9-12 of pregnancy
[5] = 4,000 mg/kg/day, Days 12-16 of pregnancy
[6] = 4,000 mg/kg/day, Days 16-20 of pregnancy (posttreatment)
[7] = 12,000 mg/kg/day, Days 0-6 of pregnancy (pretreatment)
[8] = 12,000 mg/kg/day, Days 6-9 of pregnancy
[9] = 12,000 mg/kg/day, Days 9-12 of pregnancy
[10] = 12,000 mg/kg/day, Days 12-16 of pregnancy
[11] = 12,000 mg/kg/day, Days 16-20 of pregnancy (posttreatment)
[12] = 20,000 mg/kg/day, Days 0-6 of pregnancy (pretreatment)
[13] = 20,000 mg/kg/day, Days 6-9 of pregnancy
[14] = 20,000 mg/kg/day, Days 9-12 of pregnancy
[15] = 20,000 mg/kg/day, Days 12-16 of pregnancy
[16] = 20,000 mg/kg/day, Days 16-20 of pregnancy (posttreatment)

O=C(CO)[C@@H](O)[C@@H](O)[C@H](O)CO [D-tagatose]
Food intake (g/animal) (Female Crl:CD(SD)BR Rats; [2]): 144 ± 11 g/animal
Food intake (g/kg body wt/day) (Female Crl:CD(SD)BR Rats; [2]): 103 ± 7 g/kg body wt/day
Food intake (g/animal) (Female Crl:CD(SD)BR Rats; [3]): 70 ± 5 g/animal
Food intake (g/kg body wt/day) (Female Crl:CD(SD)BR Rats; [3]): 84 ± 4 g/kg body wt/day
Food intake (g/animal) (Female Crl:CD(SD)BR Rats; [4]): 78 ± 7 g/animal
Food intake (g/kg body wt/day) (Female Crl:CD(SD)BR Rats; [4]): 91 ± 5 g/kg body wt/day
Food intake (g/animal) (Female Crl:CD(SD)BR Rats; [5]): 112 ± 9 g/animal
Food intake (g/kg body wt/day) (Female Crl:CD(SD)BR Rats; [5]): 90 ± 5 g/kg body wt/day
Food intake (g/animal) (Female Crl:CD(SD)BR Rats; [6]): 129 ± 10 g/animal
Food intake (g/kg body wt/day) (Female Crl:CD(SD)BR Rats; [6]): 94 ± 3 g/kg body wt/day
Food intake (g/animal) (Female Crl:CD(SD)BR Rats; [7]): 148 ± 8 g/animal
Food intake (g/kg body wt/day) (Female Crl:CD(SD)BR Rats; [7]): 104 ± 8 g/kg body wt/day
Food intake (g/animal) (Female Crl:CD(SD)BR Rats; [8]): 58 ± 6 g/animal
Food intake (g/kg body wt/day) (Female Crl:CD(SD)BR Rats; [8]): 69 ± 7 g/kg body wt/day
Food intake (g/animal) (Female Crl:CD(SD)BR Rats; [9]): 73 ± 6 g/animal
Food intake (g/kg body wt/day) (Female Crl:CD(SD)BR Rats; [9]): 84 ± 5 g/kg body wt/day
Food intake (g/animal) (Female Crl:CD(SD)BR Rats; [10]): 105 ± 9 g/animal
Food intake (g/kg body wt/day) (Female Crl:CD(SD)BR Rats; [10]): 83 ± 5 g/kg body wt/day
Food intake (g/animal) (Female Crl:CD(SD)BR Rats; [11]): 137 ± 9 g/animal
Food intake (g/kg body wt/day) (Female Crl:CD(SD)BR Rats; [11]): 99 ± 5 g/kg body wt/day
Food intake (g/animal) (Female Crl:CD(SD)BR Rats; [12]): 149 ± 14 g/animal
Food intake (g/kg body wt/day) (Female Crl:CD(SD)BR Rats; [12]): 107 ± 9 g/kg body wt/day
Food intake (g/animal) (Female Crl:CD(SD)BR Rats; [13]): 43 ± 12 g/animal
Food intake (g/kg body wt/day) (Female Crl:CD(SD)BR Rats; [13]): 51 ± 14 g/kg body wt/day
Food intake (g/animal) (Female Crl:CD(SD)BR Rats; [14]): 67 ± 7 g/animal
Food intake (g/kg body wt/day) (Female Crl:CD(SD)BR Rats; [14]): 80 ± 7 g/kg body wt/day
Food intake (g/animal) (Female Crl:CD(SD)BR Rats; [15]): 94 ± 10 g/animal
Food intake (g/kg body wt/day) (Female Crl:CD(SD)BR Rats; [15]): 77 ± 6 g/kg body wt/day
Food intake (g/animal) (Female Crl:CD(SD)BR Rats; [16]): 138 ± 11 g/animal
Food intake (g/kg body wt/day) (Female Crl:CD(SD)BR Rats; [16]): 102 ± 6 g/kg body wt/day
Weight loss in the dams (Female Crl:CD(SD)BR Rats; except Day 6 to Day 9, attributed to laxation in the high dose groups): no consistent weight loss in the dams
Total daily food intake versus control group (Female Crl:CD(SD)BR Rats; period on tagatose, Day 6 through Day 15): less than the daily food intakes of rats in the control group
Birth weight (human; 70 kg human female, family history of low birth weight babies, five g twice daily): delivers a baby within the normal birth weight range
Food intake during pregnancy (human; 70 kg human inclined toward obesity, five g twice daily): their average daily diet does not increase
Conception (increased fertility) (human; 70 kg human, history of difficulty conceiving, five g twice daily from one month before attempt): their attempt is successful and they are pregnant
Live birth (human; 70 kg human, history of spontaneous abortions and stillbirths, five g twice daily): delivering a live birth
Females pregnant (%) ([1]; 4,000 mg/kg/day): 100%
Fertility index ([1]; 4,000 mg/kg/day): 100
Litters with resorptions (%) ([1]; 4,000 mg/kg/day): 78.3%
Number of dead fetuses ([1]; 4,000 mg/kg/day): 0
Number of females bearing viable fetuses ([1]; 4,000 mg/kg/day): 23
Number of females pregnant ([1]; 4,000 mg/kg/day): 23
Number of litters with resorptions ([1]; 4,000 mg/kg/day): 18
Total number of viable fetuses ([1]; 4,000 mg/kg/day): 354
Body weight (g) of viable fetuses ([1]; 4,000 mg/kg/day): 3.56 ± 0.21 g
Body weight (g) of viable fetuses: Female fetuses ([1]; 4,000 mg/kg/day): 3.49 ± 0.20 g
Body weight (g) of viable fetuses: Male fetuses ([1]; 4,000 mg/kg/day): 3.64 ± 0.22 g
Number of corpora lutea ([1]; 4,000 mg/kg/day): 17.7 ± 2.8
Number of female fetuses ([1]; 4,000 mg/kg/day): 8.0 ± 2.2
Number of implantation sites ([1]; 4,000 mg/kg/day): 16.5 ± 2.3
Number of males fetuses ([1]; 4,000 mg/kg/day): 7.4 ± 2.3
Number of resorptions ([1]; 4,000 mg/kg/day): 1.1 ± 0.9
Postimplantation loss = (resorptions/implantations) ([1]; 4,000 mg/kg/day): 0.068 ± 0.051
Preimplantation loss = (corpora lutea-implants)/(corpora lutea) ([1]; 4,000 mg/kg/day): 0.053 ± 0.113
Females pregnant (%) ([1]; 12,000 mg/kg/day): 91.3%
Fertility index ([1]; 12,000 mg/kg/day): 91.3
Litters with resorptions (%) ([1]; 12,000 mg/kg/day): 28.6%
Number of dead fetuses ([1]; 12,000 mg/kg/day): 0
Number of females bearing viable fetuses ([1]; 12,000 mg/kg/day): 21
Number of females pregnant ([1]; 12,000 mg/kg/day): 21
Number of litters with resorptions ([1]; 12,000 mg/kg/day): 6
Total number of viable fetuses ([1]; 12,000 mg/kg/day): 322
Body weight (g) of viable fetuses ([1]; 12,000 mg/kg/day): 3.75 ± 0.32 g
Body weight (g) of viable fetuses: Female fetuses ([1]; 12,000 mg/kg/day): 3.65 ± 0.35 g
Body weight (g) of viable fetuses: Male fetuses ([1]; 12,000 mg/kg/day): 3.84 ± 0.33 g
Number of corpora lutea ([1]; 12,000 mg/kg/day): 17.7 ± 2.9
Number of female fetuses ([1]; 12,000 mg/kg/day): 7.5 ± 2.2
Number of implantation sites ([1]; 12,000 mg/kg/day): 15.9 ± 2.9
Number of males fetuses ([1]; 12,000 mg/kg/day): 7.8 ± 2.3
Number of resorptions ([1]; 12,000 mg/kg/day): 0.5 ± 0.9
Postimplantation loss = (resorptions/implantations) ([1]; 12,000 mg/kg/day): 0.043 ± 0.087
Preimplantation loss = (corpora lutea-implants)/(corpora lutea) ([1]; 12,000 mg/kg/day): 0.094 ± 0.151
Females pregnant (%) ([1]; 20,000 mg/kg/day): 100%
Fertility index ([1]; 20,000 mg/kg/day): 100
Litters with resorptions (%) ([1]; 20,000 mg/kg/day): 54.2%
Number of dead fetuses ([1]; 20,000 mg/kg/day): 0
Number of females bearing viable fetuses ([1]; 20,000 mg/kg/day): 24
Number of females pregnant ([1]; 20,000 mg/kg/day): 24
Number of litters with resorptions ([1]; 20,000 mg/kg/day): 13
Total number of viable fetuses ([1]; 20,000 mg/kg/day): 350
Body weight (g) of viable fetuses ([1]; 20,000 mg/kg/day): 3.57 ± 0.24 g
Body weight (g) of viable fetuses: Female fetuses ([1]; 20,000 mg/kg/day): 3.49 ± 0.19 g
Body weight (g) of viable fetuses: Male fetuses ([1]; 20,000 mg/kg/day): 3.68 ± 0.27 g
Number of corpora lutea ([1]; 20,000 mg/kg/day): 17.4 ± 2.8
Number of female fetuses ([1]; 20,000 mg/kg/day): 7.1 ± 2.3
Number of implantation sites ([1]; 20,000 mg/kg/day): 15.3 ± 2.9
Number of males fetuses ([1]; 20,000 mg/kg/day): 7.5 ± 2.3
Number of resorptions ([1]; 20,000 mg/kg/day): 0.8 ± 0.8
Postimplantation loss = (resorptions/implantations) ([1]; 20,000 mg/kg/day): 0.047 ± 0.049
Preimplantation loss = (corpora lutea-implants)/(corpora lutea) ([1]; 20,000 mg/kg/day): 0.107 ± 0.162
Adverse effects in the dams or fetuses ([1]; 4,000, 12,000 and 20,000 mg/kg body wt/day via gastric intubation, Days 6-15 of gestation, killed Day 20): No adverse effects in the dams or fetuses were found
Fetal weight versus control rats ([1]; each tagatose group, total, males and females): weighed more than the fetuses of the control rats
Fetal weight relative to normal weight range for age ([1]; fetuses from rats on tagatose, normal range 3.35-3.86 g males, 3.19-3.63 g females): within the normal weight range for their ages
